In patent publication US11690834B2, “Composition, uses, and methods of treating spinal disc degeneration through sonic hedgehog signaling pathway” (New York Society For the Relief Of The Ruptured and …, priority 2017, dated 2023):
“Also recorded” adds a separate entry of the source.

How the values were obtained:
[1] = test system: one-year-old mouse disc; settings: in vitro; cited from earlier work
[2] = test system: SHH signaling pathway in the intervertebral disc; test: Intraperitoneal SAG in adult mice, real-time RT-qPCR of lumbar discs for SHH and its downstream targets; assay type: in vivo, mouse; settings: i.p., 10 mg/kg body weight, every day for seven days, vs water
Protocol: To test the potential for activation of SHH or SHH signaling for disc therapy and treatment of lower back pain, a small molecule agonist of hedgehog signaling pathway called SAG that activates the smoothened receptor downstream of the ligand was administered to mice. Adult mice were administered intraperitoneally either with water or SAG dissolved in water at a concentration of with 10 mg/kg body weight. The mice were treated every day for seven days. Next day, the lumbar discs were collected for RNA isolation and real-time RT-qPCR analysis for SHH and its downstream targets. […] Upregulation of SHH mRNA expression was also associated with an increase in the expression of its downstream targets Ptch1 and Gli1.

[3] = test system: SHH signaling pathway in the intervertebral disc; test: as above; assay type: in vivo, mouse; settings: middle-aged mice, intraperitoneal injection

SMILES: O=C1Nc2cc(Br)ccc2/C1=C1/Nc2ccccc2/C1=N\O [BIO]
- ECM production [1]: increased
- increase in cell proliferation [1]: Not observed
- stimulation of Hedgehog signaling [1]: increased

SMILES: CNC1CCC(N(Cc2cccc(-c3ccncc3)c2)C(=O)c2sc3ccccc3c2Cl)CC1 (stereo not drawn) [SAG]
- expression of ECM marker Col2 [2]: increased expression; also recorded: upregulation
- expression of ECM marker Sox9 [2]: increased expression; also recorded: upregulation
- expression of downstream target Gli1 [2]: increase; also recorded: upregulation
- expression of downstream target Ptch1 [2]: increase; also recorded: upregulation
- mRNA expression of SHH compared to controls [2]: increased; also recorded: up-regulation
- expression of ECM protein ACAN [3]: upregulation
